# Patent US20230190924A1, “ANTIGEN OF ALLERGY AND EPITOPE THEREOF” (HOYU CO., LTD., priority 2017, published 2023)
# Test system: IgE antibodies from patients
# Test: Epitope mapping (2) overlapping (10-amino-acid peptides) and (3) alanine scanning on peptide arrays
# Type: binding, human
# Details: for region within the epitope important for binding to IgE antibodies from patients: procedures (B) overlapping and (C) alanine scanning; for binding to IgE antibodies from patients, sequence comprising a region amino-terminally adjacent to the epitope / binding to IgE antibodies from patients, sequence comprising a region carboxy-terminally adjacent to the epitope: overlapping peptides with flanking sequence
# Procedure: On the basis of the sequences (SEQ ID NOs: 272-295 for vitellogenin-2 precursor, SEQ ID NOs: 296-303 for vitellogenin-3, SEQ ID NOs: 304-311 for apolipoprotein B precursor, and SEQ ID NOs: 312-318 for vitellogenin-1 or lipovitellin-1) of the peptides bound to an IgE antibody in serum in a patient-specific manner as described above in (A), a library of overlapping peptide fragments (length: 10 amino acids) was prepared using the sequences of the peptides and sequences in which sequences were added so as to flank each peptide in the amino acid sequences of allergen components (amino acid sequences of SEQ ID NO: 59, 106 or 262 for vitellogenin-2 precursor, SEQ ID NO: 2, 13 or 47 for vitellogenin-3, SEQ ID NO: 152, 237 or 251 for apolipoprotein B, and SEQ ID NO: 18 for vitellogenin-1 or lipovitellin-1) comprising the sequences of the peptide to carry out epitope mapping.
# The peptides to be synthesized were shifted by one amino acid.
# The library was prepared by the same procedure as described above in (A), and the presence or absence of binding of an IgE antibody present in the serum of a patient and a non-egg-allergic subject to each peptide fragment was measured by the same technique as described above. Amino acids at positions where the binding activity against IgE antibodies from patients were lost or decreased in the peptides shifted by one amino acid while binding activity against IgE antibodies from non-egg-allergic subjects arose were confirmed as amino acids adversely affecting the specificity of binding to IgE antibodies.
# Chemiluminescence intensity in images obtained by measurement was converted into a numeric value in the same manner as in (A) using ImageQuant TL (GE Healthcare). Numeric values determined from images obtained as a result of using only anti-human IgE antibody-HRP antibody without carrying out the procedures (2) and (3) described above in the subsection titled (3) Spotting of cellulose-bound peptide solution were […] numeric values determined from images obtained from results about the serum of 6 patients. It was determined that a peptide having the resulting value larger than 0 had no binding activity against IgE antibodies when having less than 20% of values obtained using the sequences (amino acid sequences of SEQ ID NO: 59, 106 or 262 for vitellogenin-2, SEQ ID NO: 2, 13 or 47 for vitellogenin-3, SEQ ID NO: 152, 237 or 251 for apolipoprotein B, and SEQ ID NO: 18 for vitellogenin-1 or lipovitellin-1) serving as the basis of overlapping, had binding activity, albeit poor, against IgE antibodies when having 20% or more and less than 50% thereof, had binding activity, albeit somewhat poor, against IgE antibodies when having 50% or more and less than 70% thereof, had almost equivalent binding activity against IgE antibodies when having 70% or more and less than 90% thereof, and had equivalent or good binding activity against IgE antibodies and thus had remaining binding activity against IgE antibodies when having 90% or more thereof.
# From the amino acid sequences identified above in (A), a library of peptide fragments in which N-terminal amino acids were substituted one by one by alanine according to a technique called alanine scanning (Non Patent Literature 1) was prepared by the same technique as described above. The presence or absence of binding of an IgE antibody present in the serum of a patient and a non-egg-allergic subject to each peptide fragment was measured by the same technique as described above. Amino acids at positions where the binding activity against IgE antibodies from patients were lost or decreased by the substitution by alanine while binding activity against IgE antibodies from non-egg-allergic subjects arose were confirmed as amino acids important for exertion of original antigenicity, or amino acids influencing exertion of original antigenicity.
Substance,region within the epitope important for binding to IgE antibodies from patients,also measured
ELL (epitope) [SEQ ID NO: 637],important for binding,
SEQ ID NO: 319: sequence comprising a region amino-terminally adjacent to epitope 1 (LKVRSPQVEE; epitope),,"binding to IgE antibodies from patients, sequence comprising a region amino-terminally adjacent to the epitope: binding to IgE antibodies from patients"
SEQ ID NO: 323: region in epitope 1 (VEEYNG; epitope),important for binding,
SEQ ID NO: 324: sequence comprising a region amino-terminally adjacent to epitope 2 (MFQMTIKKS; epitope),,"binding to IgE antibodies from patients, sequence comprising a region amino-terminally adjacent to the epitope: binding to IgE antibodies from patients"
SEQ ID NO: 327: region in epitope 2 (QMTIKKSQNV; epitope),important for binding,
SEQ ID NO: 330: region in epitope 3 (RGREDKMK; epitope),important for binding,
SEQ ID NO: 331: region in epitope 3 (KMKLALKCIG; epitope),important for binding,
SEQ ID NO: 333: region in epitope 3 (REDKMKLAL; epitope),important for binding,
SEQ ID NO: 335: region in epitope 3 (KMKLALKCIG; epitope),important for binding,
SEQ ID NO: 336: sequence comprising a region carboxy-terminally adjacent to epitope 3 (ALKCIGNMGE; epitope),,"binding to IgE antibodies from patients, sequence comprising a region carboxy-terminally adjacent to the epitope: binding to IgE antibodies from patients"
SEQ ID NO: 339: region in epitope 4 (ALKKIAWKDP; epitope),important for binding,
SEQ ID NO: 342: sequence comprising a region amino-terminally adjacent to epitope 4 (DAITALKKIA; epitope),,"binding to IgE antibodies from patients, sequence comprising a region amino-terminally adjacent to the epitope: binding to IgE antibodies from patients"
SEQ ID NO: 343: region in epitope 4 (LKKIAWKDP; epitope),important for binding,
SEQ ID NO: 344: region in epitope 4 (KIAWKDPKTV; epitope),important for binding,
SEQ ID NO: 346: region in epitope 4 (AWKDPKTVQG; epitope),important for binding,
SEQ ID NO: 347: region in epitope 4 (LKKIA; epitope),important for binding,
SEQ ID NO: 350: region in epitope 4 (AWKDPKTV; epitope),important for binding,
SEQ ID NO: 351: sequence comprising a region carboxy-terminally adjacent to epitope 4 (PKTVQGYL; epitope),,"binding to IgE antibodies from patients, sequence comprising a region carboxy-terminally adjacent to the epitope: binding to IgE antibodies from patients"
SEQ ID NO: 353: sequence comprising a region amino-terminally adjacent to epitope 5 (CNIALKLLSP; epitope),,"binding to IgE antibodies from patients, sequence comprising a region amino-terminally adjacent to the epitope: binding to IgE antibodies from patients"

Substance,region within the epitope important for binding to IgE antibodies from patients,also measured
SEQ ID NO: 355: region in epitope 5 (LLSPKLDS; epitope),important for binding,
SEQ ID NO: 356: region in epitope 5 (KLDS; epitope),important for binding,
SEQ ID NO: 357: sequence comprising a region carboxy-terminally adjacent to epitope 5 (KLDSMSYRY; epitope),,"binding to IgE antibodies from patients, sequence comprising a region carboxy-terminally adjacent to the epitope: binding to IgE antibodies from patients"
SEQ ID NO: 359: sequence comprising a region amino-terminally adjacent to epitope 6 (VVNSPRTMF; epitiope),,"binding to IgE antibodies from patients, sequence comprising a region amino-terminally adjacent to the epitope: binding to IgE antibodies from patients"
SEQ ID NO: 360: sequence comprising a region carboxy-terminally adjacent to epitope 6 (PSAIISKLMA; epitope),,"binding to IgE antibodies from patients, sequence comprising a region carboxy-terminally adjacent to the epitope: binding to IgE antibodies from patients"
SEQ ID NO: 363: sequence comprising a region amino-terminally adjacent to epitope 6 (VVNSPRT; epitope),,"binding to IgE antibodies from patients, sequence comprising a region amino-terminally adjacent to the epitope: binding to IgE antibodies from patients"
SEQ ID NO: 366: region in epitope 6 (SPRTMFPSAI; epitope),important for binding,
SEQ ID NO: 369: region in epitope 6 (TMFPSAIISK; epitope),important for binding,
SEQ ID NO: 374: region in epitope 7 (ISKLMANSA; epitope),important for binding,
SEQ ID NO: 375: sequence comprising a region carboxy-terminally adjacent to epitope 7 (SAGSVADLVE; epitope),,"binding to IgE antibodies from patients, sequence comprising a region carboxy-terminally adjacent to the epitope: binding to IgE antibodies from patients"
SEQ ID NO: 377: sequence comprising a region amino-terminally adjacent to epitope 8 (IKELGKALQG; epitope),,"binding to IgE antibodies from patients, sequence comprising a region amino-terminally adjacent to the epitope: binding to IgE antibodies from patients"
SEQ ID NO: 379: region in epitope 8 (KALQGWKELP; epitope),important for binding,
SEQ ID NO: 380: sequence comprising a region carboxy-terminally adjacent to epitope 8 (ELPTETPLVS; epitope),,"binding to IgE antibodies from patients, sequence comprising a region carboxy-terminally adjacent to the epitope: binding to IgE antibodies from patients"
SEQ ID NO: 381: sequence comprising a region carboxy-terminally adjacent to epitope 8 (LPTETPLVS; epitope),,"binding to IgE antibodies from patients, sequence comprising a region carboxy-terminally adjacent to the epitope: binding to IgE antibodies from patients"
SEQ ID NO: 384: sequence comprising a region amino-terminally adjacent to epitope 8 (IKELGKALQG; epitope),,"binding to IgE antibodies from patients, sequence comprising a region amino-terminally adjacent to the epitope: binding to IgE antibodies from patients"
SEQ ID NO: 385: sequence comprising a region amino-terminally adjacent to epitope 8 (ELGKALQGWK; epitope),,"binding to IgE antibodies from patients, sequence comprising a region amino-terminally adjacent to the epitope: binding to IgE antibodies from patients"
SEQ ID NO: 388: region in epitope 8 (KALQGWKEL; epitope),important for binding,
SEQ ID NO: 391: region in epitope 8 (GWKELPTET; epitope),important for binding,
